Experimental data: ChEMBL document CHEMBL5528056, “BAY-9835: Discovery of the First Orally Bioavailable ADAMTS7 Inhibitor” (J Med Chem, 2024); call rule not given here
≈ marks a conversion by molar mass, not a printed value.

Key:
Cytochrome P450 2C8 [1] = molecular target: T1, Cytochrome P450 2C8 (Homo sapiens, UniProt P10632); experiment: Inhibition of CYP2C8 in human liver microsomes using amodiaquin as substrate upto 20 uM by LC-MS/MS analysis; type: ADME, Microsome
T1 sequence (P10632 whole entry): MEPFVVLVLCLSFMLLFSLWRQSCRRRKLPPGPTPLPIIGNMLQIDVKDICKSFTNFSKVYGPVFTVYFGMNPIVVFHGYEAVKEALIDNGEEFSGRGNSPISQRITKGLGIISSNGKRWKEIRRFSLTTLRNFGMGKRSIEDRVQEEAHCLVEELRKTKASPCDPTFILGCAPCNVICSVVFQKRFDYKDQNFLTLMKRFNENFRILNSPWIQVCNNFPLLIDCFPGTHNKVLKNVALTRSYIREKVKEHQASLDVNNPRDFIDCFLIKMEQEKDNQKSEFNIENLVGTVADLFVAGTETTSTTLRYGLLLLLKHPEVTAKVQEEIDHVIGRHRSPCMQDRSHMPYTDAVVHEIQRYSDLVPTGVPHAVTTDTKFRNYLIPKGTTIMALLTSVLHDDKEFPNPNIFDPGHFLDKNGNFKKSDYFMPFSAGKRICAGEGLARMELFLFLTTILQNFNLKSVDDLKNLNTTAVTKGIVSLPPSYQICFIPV

[2] = Tmax in C57bl6 mouse at 1 mg/kg, po measured for >24 hrs by HPLC-MS/MS analysis; type: ADME, organism-based; settings: in vivo
[3] = molecular target: Sodium channel protein type 5 subunit alpha (Homo sapiens, UniProt Q14524); experiment: Inhibition of hNaV1.5 upto 10 uM by voltage clamp method; type: toxicity
[4] = Dose normalized AUC in Wistar rat at 0.3 mg/kg, iv measured for >24 hrs by HPLC-MS/MS analysis; type: ADME, organism-based; settings: in vivo
[5] = Half life in Wistar rat at 1 mg/kg, po measured for >24 hrs by HPLC-MS/MS analysis; type: ADME, organism-based; settings: in vivo
[6] = Stability in aqueous solution at pH 1 to 7 measured after 24 hrs by HPLC analysis; type: physicochemical; settings: buffer, pH 1, 24 h
[7] = Selectivity ratio of IC50 for C-terminal 10His-tagged recombinant human MMP-14 (21 to 284 residues) expressed in Escherichia coli using McaKPLGL-Dpa-AR-NH2 as substrate to IC50 for ADAMTS7 (unknown origin)
[8] = Selectivity ratio of IC50 for C-terminal 6His-tagged recombinant human ADAM8 (1 to 497 residues) using Dabcyl-SSNQLQRR-Glu(EDANS)-NH2 as substrate to IC50 for ADAMTS7 (unknown origin)
[9] = Selectivity ratio of IC50 for ADAMTS12 (unknown origin) to IC50 for ADAMTS7 (unknown origin)
[10] = Selectivity ratio of IC50 for ADAMTS4 (unknown origin) to IC50 for ADAMTS7 (unknown origin)
[11] = Clearance in Wistar rat at 0.3 mg/kg, iv measured for >24 hrs by HPLC-MS/MS analysis; type: ADME, organism-based; settings: in vivo
[12] = Volume of distribution at steady state in Beagle dog at 0.3 mg/kg, iv measured for >24 hrs by HPLC-MS/MS analysis; type: ADME, organism-based, Canis lupus familiaris; settings: in vivo
[13] = molecular target: A disintegrin and metalloproteinase with thrombospondin motifs 7 (Rattus norvegicus, UniProt Q1EHB3); experiment: Inhibition of recombinant rat ADAMTS7 using HiLyteFluor-488 DELSSMVLELRGLRT-K(QXL520)-E-NH2 as substrate incubated for 120 mins by FRET assay
A disintegrin and metalloproteinase with thrombospondin motifs 7, sequence (Q1EHB3 whole entry): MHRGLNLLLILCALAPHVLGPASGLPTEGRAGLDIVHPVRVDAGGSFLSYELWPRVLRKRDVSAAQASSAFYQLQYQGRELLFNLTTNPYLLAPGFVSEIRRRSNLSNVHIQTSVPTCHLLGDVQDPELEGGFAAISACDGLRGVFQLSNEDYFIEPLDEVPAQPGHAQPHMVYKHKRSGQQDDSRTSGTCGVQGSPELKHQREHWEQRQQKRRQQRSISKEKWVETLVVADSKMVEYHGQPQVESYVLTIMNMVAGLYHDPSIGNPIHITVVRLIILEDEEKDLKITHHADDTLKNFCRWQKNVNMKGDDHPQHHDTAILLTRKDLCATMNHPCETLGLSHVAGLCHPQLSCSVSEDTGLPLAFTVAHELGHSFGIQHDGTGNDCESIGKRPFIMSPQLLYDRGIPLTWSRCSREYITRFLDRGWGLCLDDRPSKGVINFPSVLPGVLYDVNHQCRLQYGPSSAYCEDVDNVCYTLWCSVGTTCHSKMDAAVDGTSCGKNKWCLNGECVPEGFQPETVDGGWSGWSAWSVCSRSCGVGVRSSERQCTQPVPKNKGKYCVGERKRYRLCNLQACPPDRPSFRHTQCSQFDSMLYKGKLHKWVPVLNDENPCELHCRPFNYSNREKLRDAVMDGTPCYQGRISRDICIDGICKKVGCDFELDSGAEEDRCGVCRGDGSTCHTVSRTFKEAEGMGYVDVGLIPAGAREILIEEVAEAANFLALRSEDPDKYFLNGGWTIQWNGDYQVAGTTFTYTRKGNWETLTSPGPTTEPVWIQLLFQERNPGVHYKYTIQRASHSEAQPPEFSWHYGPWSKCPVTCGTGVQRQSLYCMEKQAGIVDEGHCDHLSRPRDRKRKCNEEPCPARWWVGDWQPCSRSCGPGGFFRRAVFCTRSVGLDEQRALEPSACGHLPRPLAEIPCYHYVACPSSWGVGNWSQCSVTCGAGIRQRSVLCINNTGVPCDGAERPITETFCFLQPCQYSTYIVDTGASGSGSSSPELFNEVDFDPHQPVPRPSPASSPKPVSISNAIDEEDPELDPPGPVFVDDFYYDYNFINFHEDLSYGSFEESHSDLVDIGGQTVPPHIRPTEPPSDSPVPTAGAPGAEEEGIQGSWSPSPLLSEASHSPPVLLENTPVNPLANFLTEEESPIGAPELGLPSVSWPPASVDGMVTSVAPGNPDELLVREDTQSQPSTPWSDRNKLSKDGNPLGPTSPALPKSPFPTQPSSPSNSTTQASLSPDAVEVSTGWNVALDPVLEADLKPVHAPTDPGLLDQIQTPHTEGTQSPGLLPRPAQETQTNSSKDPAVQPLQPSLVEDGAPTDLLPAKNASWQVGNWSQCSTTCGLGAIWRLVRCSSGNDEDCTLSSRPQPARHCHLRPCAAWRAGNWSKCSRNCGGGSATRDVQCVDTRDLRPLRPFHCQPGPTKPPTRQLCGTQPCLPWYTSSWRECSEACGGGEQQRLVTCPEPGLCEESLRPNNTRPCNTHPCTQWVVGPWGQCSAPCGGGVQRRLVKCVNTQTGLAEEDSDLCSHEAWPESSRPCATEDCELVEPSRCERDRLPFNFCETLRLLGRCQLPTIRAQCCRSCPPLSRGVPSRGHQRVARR

Cytochrome P450 3A4 [14] = molecular target: T2, Cytochrome P450 3A4 (Homo sapiens, UniProt P08684); experiment: Induction of CYP3A4 in human hepatocytes upto 61 uM incubated for 48 hrs by qPCR analysis; type: ADME, cell-based, Hepatocyte
T2 sequence (P08684 whole entry): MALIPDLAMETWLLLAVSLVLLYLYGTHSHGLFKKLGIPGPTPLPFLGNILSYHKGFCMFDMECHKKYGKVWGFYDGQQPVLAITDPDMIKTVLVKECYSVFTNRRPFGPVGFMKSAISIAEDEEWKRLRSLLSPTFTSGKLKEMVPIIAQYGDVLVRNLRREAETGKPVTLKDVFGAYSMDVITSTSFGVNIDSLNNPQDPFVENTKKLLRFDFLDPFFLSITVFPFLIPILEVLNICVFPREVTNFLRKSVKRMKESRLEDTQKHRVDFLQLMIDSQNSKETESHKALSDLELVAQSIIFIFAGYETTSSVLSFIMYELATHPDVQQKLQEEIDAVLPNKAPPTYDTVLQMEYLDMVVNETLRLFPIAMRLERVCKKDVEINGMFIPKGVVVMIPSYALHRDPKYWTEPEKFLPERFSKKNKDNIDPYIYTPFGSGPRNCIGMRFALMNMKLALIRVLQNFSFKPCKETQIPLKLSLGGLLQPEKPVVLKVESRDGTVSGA

[15] = Dose normalized AUC in C57bl6 mouse at 0.3 mg/kg, iv measured for >24 hrs by HPLC-MS/MS analysis; type: ADME, organism-based; settings: in vivo
[16] = molecular target: Voltage-gated inwardly rectifying potassium channel KCNH2 (Homo sapiens, UniProt Q12809); experiment: Inhibition of hERG upto 10 uM by whole-cell voltage clamp method; type: toxicity
Voltage-gated inwardly rectifying potassium channel KCNH2, sequence (Q12809 whole entry): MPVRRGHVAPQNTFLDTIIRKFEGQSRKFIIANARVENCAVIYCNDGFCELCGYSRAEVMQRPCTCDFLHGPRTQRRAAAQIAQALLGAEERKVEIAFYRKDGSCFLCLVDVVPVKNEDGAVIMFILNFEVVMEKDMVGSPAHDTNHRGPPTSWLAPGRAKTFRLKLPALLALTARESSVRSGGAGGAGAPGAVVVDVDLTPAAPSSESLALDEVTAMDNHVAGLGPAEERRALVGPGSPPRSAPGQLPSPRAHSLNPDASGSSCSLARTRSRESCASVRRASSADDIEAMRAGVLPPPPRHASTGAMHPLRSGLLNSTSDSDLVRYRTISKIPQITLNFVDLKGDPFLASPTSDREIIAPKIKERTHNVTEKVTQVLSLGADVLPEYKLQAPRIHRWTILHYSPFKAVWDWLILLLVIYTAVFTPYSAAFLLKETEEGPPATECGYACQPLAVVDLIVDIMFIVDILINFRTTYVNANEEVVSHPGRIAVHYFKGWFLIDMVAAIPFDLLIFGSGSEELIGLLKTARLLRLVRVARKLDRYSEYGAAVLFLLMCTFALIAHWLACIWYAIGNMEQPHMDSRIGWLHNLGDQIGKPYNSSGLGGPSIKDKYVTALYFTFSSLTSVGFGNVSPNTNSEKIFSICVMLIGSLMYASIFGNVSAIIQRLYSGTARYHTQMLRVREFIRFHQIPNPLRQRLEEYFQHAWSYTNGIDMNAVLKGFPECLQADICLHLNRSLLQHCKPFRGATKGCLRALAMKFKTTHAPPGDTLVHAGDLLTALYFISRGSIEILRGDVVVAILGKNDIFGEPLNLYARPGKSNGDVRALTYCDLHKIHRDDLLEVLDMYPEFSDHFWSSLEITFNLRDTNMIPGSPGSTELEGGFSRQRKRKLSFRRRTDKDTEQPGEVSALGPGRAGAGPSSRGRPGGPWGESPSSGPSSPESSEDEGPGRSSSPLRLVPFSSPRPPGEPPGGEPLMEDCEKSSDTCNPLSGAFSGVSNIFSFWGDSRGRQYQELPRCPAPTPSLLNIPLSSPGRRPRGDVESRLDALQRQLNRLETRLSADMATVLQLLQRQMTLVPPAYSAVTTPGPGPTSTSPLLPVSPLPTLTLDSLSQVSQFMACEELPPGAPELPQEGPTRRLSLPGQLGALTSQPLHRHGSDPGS

[17] = Selectivity ratio of IC50 for ADAMTS5 (unknown origin) to IC50 for ADAMTS7 (unknown origin)
[18] = Oral bioavailability in C57bl6 mouse at 1 mg/kg measured for >24 hrs by HPLC-MS/MS analysis; type: ADME, organism-based; settings: in vivo
[19] = Stability in human plasma measured for 4 hrs by HPLC analysis; type: ADME, cell-free
[20] = Solubility of compound in FeSSIF measured after 24 hrs by HPLC analysis; type: ADME; settings: simulated gi fluid
[21] = Half life in Beagle dog at 1 mg/kg, po measured for >24 hrs by HPLC-MS/MS analysis; type: ADME, organism-based, Canis lupus familiaris; settings: in vivo
[22] = Selectivity ratio of IC50 for MMP15 (unknown origin) to IC50 for ADAMTS7 (unknown origin)
[23] = Genotoxicity in Salmonella typhimurium by Ames […] test; type: toxicity; settings: salmonella enterica subsp. enterica serovar typhimurium
[24] = Dose normalized AUC in Beagle dog at 1 mg/kg, po measured for >24 hrs by HPLC-MS/MS analysis; type: ADME, organism-based, Canis lupus familiaris; settings: in vivo
[25] = Fraction unbound in mouse plasma; type: ADME, cell-free
[26] = Half life in C57bl6 mouse at 0.3 mg/kg, iv measured for >24 hrs by HPLC-MS/MS analysis; type: ADME, organism-based; settings: in vivo
[27] = Selectivity ratio of IC50 for MMP12 (unknown origin) to IC50 for ADAMTS7 (unknown origin)
[28] = Clearance in iv-dosed Wistar rat measured after 24 hrs by HPLC-MS/MS analysis; type: ADME; settings: in vivo
[29] = Selectivity ratio of IC50 for MMP2 (unknown origin) to IC50 for ADAMTS7 (unknown origin)
[30] = Fraction unbound in dog plasma; type: ADME, cell-free, Canis lupus familiaris
Cytochrome P450 2D6 = Cytochrome P450 2D6 (Homo sapiens, UniProt P10635); experiment: Inhibition of CYP2D6 in human liver microsomes using dextromethorphan as substrate upto 20 uM by LC-MS/MS analysis; type: ADME, Microsome
Cytochrome P450 2D6, sequence (P10635 whole entry): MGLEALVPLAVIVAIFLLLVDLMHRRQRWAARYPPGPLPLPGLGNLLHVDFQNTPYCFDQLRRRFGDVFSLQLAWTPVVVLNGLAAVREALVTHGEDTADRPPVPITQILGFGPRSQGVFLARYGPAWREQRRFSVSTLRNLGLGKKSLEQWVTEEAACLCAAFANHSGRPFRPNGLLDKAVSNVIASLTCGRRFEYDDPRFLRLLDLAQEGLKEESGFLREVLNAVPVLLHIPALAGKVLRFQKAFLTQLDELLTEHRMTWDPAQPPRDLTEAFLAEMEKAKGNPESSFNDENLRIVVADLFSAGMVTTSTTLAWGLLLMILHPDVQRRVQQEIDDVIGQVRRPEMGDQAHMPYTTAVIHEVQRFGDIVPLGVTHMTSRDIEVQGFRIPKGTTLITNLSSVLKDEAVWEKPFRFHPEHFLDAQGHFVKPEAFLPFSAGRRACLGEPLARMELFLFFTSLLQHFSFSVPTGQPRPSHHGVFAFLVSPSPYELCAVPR

[31] = Lipophilicity, logD of compound at pH 7.5; type: physicochemical; settings: buffer
[32] = Fraction unbound in rat plasma; type: ADME, cell-free
[33] = Half life in Beagle dog at 0.3 mg/kg, iv measured for >24 hrs by HPLC-MS/MS analysis; type: ADME, organism-based, Canis lupus familiaris; settings: in vivo
[34] = Oral bioavailability in Wistar rat at 1 mg/kg measured for >24 hrs by HPLC-MS/MS analysis; type: ADME, organism-based; settings: in vivo
Cytochrome P450 2C8 [35] = molecular target: T1, Cytochrome P450 2C8; experiment: Inhibition of CYP2C8 in human liver microsomes using diclofenac as substrate upto 20 uM by LC-MS/MS analysis; type: ADME, Microsome
[36] = Selectivity ratio of IC50 for ADAM17 (unknown origin) to IC50 for ADAMTS7 (unknown origin)
[37] = Solubility of compound in FaSSIF measured after 24 hrs by HPLC analysis; type: ADME; settings: simulated gi fluid
Cytochrome P450 3A4 [38] = molecular target: T2, Cytochrome P450 3A4; experiment: Inhibition of CYP3A4 in human liver microsomes using midazolam as substrate upto 20 uM by LC-MS/MS analysis; type: ADME, Microsome
[39] = Clearance in C57bl6 mouse at 0.3 mg/kg, iv measured for >24 hrs by HPLC-MS/MS analysis; type: ADME, organism-based; settings: in vivo

**Q.** For `Cn1nccc1[C@]1(CNC(=O)c2ccc(F)c(F)c2-c2ccc(C(F)(F)F)cc2)NC(=O)NC1=O`, which “inhibition (INH)” value (Cytochrome P450 2C8 [1]) is on record?
**A.** The value was “Not Active”.

**Q.** What about the Tmax [2] of the same molecule?
**A.** Its Tmax is 1 h.

**Q.** And the “inhibition (INH)” value [3]?
**A.** The value was “Not Active”.

**Q.** And the AUC/dose [4]?
**A.** Its AUC/dose is 3.1 kg·h/L.

**Q.** And the t1/2 [5]?
**A.** Its t1/2 is 3.7 h.

**Q.** And the Stability [6]?
**A.** The Stability was “Stable”.

**Q.** What about the Ratio IC50 [7] of the same molecule?
**A.** The Ratio IC50 was over 16700.

**Q.** And the Ratio IC50 [8]?
**A.** The Ratio IC50 was 375.

**Q.** What about the Ratio IC50 [9] of the same molecule?
**A.** Its Ratio IC50 is 5.

**Q.** What about the Ratio IC50 [10] of the same molecule?
**A.** The Ratio IC50 was 1120.

**Q.** And the CL [11]?
**A.** The CL was 0.55 L/h/kg.

**Q.** What about the Vdss [12] of the same molecule?
**A.** Its Vdss is 0.4 L/kg.

**Q.** What about the IC50 [13] of the same molecule?
**A.** The IC50 was 27 nM.

**Q.** What about the Activity (Cytochrome P450 3A4 [14]) of the same molecule?
**A.** Its Activity is “Not Active”.

**Q.** And the AUC/dose [15]?
**A.** The AUC/dose was 1.15 kg·h/L.

**Q.** What about the “inhibition (INH)” value [16] of the same molecule?
**A.** The value was “Not Active”.

**Q.** And the Ratio IC50 [17]?
**A.** The Ratio IC50 was 1650.

**Q.** And the bioavailability [18]?
**A.** The bioavailability was 100%.

**Q.** What about the Stability [19] of the same molecule?
**A.** The Stability was “Stable”.

**Q.** And the solubility [20]?
**A.** Its solubility is 513 mg/L (≈ 1040 µM).

**Q.** And the t1/2 [21]?
**A.** Its t1/2 is 25 h.

**Q.** What about the Ratio IC50 [22] of the same molecule?
**A.** The Ratio IC50 was 13100.

**Q.** What about the Activity [23] of the same molecule?
**A.** The Activity was “Non-Toxic”.

**Q.** And the AUC/dose [24]?
**A.** Its AUC/dose is 68 kg·h/L.

**Q.** And the Fu [25]?
**A.** The Fu was 11%.

**Q.** And the t1/2 [26]?
**A.** The t1/2 was 2.1 h.

**Q.** What about the Ratio IC50 [27] of the same molecule?
**A.** Its Ratio IC50 is 896.

**Q.** And the CL [28]?
**A.** Its CL is 0.6 L/kg/h.

**Q.** And the Ratio IC50 [29]?
**A.** Its Ratio IC50 is 17300.

**Q.** What about the Fu [30] of the same molecule?
**A.** Its Fu is 5%.

**Q.** And the “inhibition (INH)” value (Cytochrome P450 2D6)?
**A.** The value was “Not Active”.

**Q.** What about the logD [31] of the same molecule?
**A.** The logD was 3.2.

**Q.** And the Fu [32]?
**A.** Its Fu is 5%.

**Q.** What about the t1/2 [33] of the same molecule?
**A.** Its t1/2 is 22 h.

**Q.** And the F [34]?
**A.** Its F is 96%.

**Q.** And the “inhibition (INH)” value (Cytochrome P450 2C8 [35])?
**A.** Its value is “Not Active”.

**Q.** And the Ratio IC50 [36]?
**A.** Its Ratio IC50 is 962.

**Q.** And the solubility [37]?
**A.** The solubility was 297 mg/L (≈ 602 µM).

**Q.** And the “inhibition (INH)” value (Cytochrome P450 3A4 [38])?
**A.** Its value is “Not Active”.

**Q.** What about the CL [39] of the same molecule?
**A.** Its CL is 1.1 L/h/kg.
